Results published in patent US9243281B2, “Neuroprotective chemicals and methods for identifying and using same” (Board of Regents of The University of Texas System, priority 2013, dated 2016).

Legend:
[1] = tested on: nicotinamide salvage pathway in U2OS cells; assay: nicotinamide flux analysis with 14C-labeled nicotinamide (TLC); assay type: cell-based; details: 0.5 μM doxorubicin 48 h, then 6 h 14C-nicotinamide
Protocol: FIGS. 6A-6B. P7C3-A20 enhances the flux of nicotinamide through the salvage pathway. (FIG. 6A) Cells were pre-treated with 0.5 μM doxorubicin for 48 hours, followed by 6 hours treatment with ^14C-nicotinamide in the presence of the indicated amount of P7C3-A20. Metabolites were extracted and analyzed by thin layer chromatography. (FIG. 6B) Quantification of the relative intensities of NAD and NMN from the thin layer chromatogram.
NAMPT is the rate limiting enzyme in the salvage pathway whereby cells sequentially convert nicotinamide into nicotinamide […] mononucleotide (NMN) and NAD (Preiss and Handler, 1958). If active variants of P7C3 indeed bind to the NAMPT dimer in a manner fostering its activity, then these compounds should enhance the flux of nicotinamide through the salvage pathway. To test this hypothesis, ^14C-labeled nicotinamide was administered to cultured U2OS cells. Six hours later, cells were lysed in perchloric acid and cleared by centrifugation so that soluble materials could be separated by thin layer chromatography (TLC) followed by autoradiography.
Logarithmically growing cells cultured in 6-well plates were treated with doxorubicin (0.5 μM) for 48 hours. […] Afterwards, the screen was scanned using the Typhoon scanner, and the ^14C-labeled compounds were quantified using Image J.

[2] = tested on: NAD in U2OS cells; assay: intracellular NAD abundance by LC-MS/MS; assay type: cell-based; details: U2OS cells exposed to sub-lethal doxorubicin
Protocol: FIGS. 5A-5C. Active variants of P7C3 compensate NAD exhaustion induced by doxorubicin. (FIG. 5A) U2OS cells were treated with the indicated concentration of P7C3-A20. Cells were harvested and NAD metabolites were measured by LC-MS/MS. Abundance of NAD was normalized relative to total metabolites (Experimental Procedures). The data are represented as the mean±SD of experimental duplicates. […] Cells were grown in 96-well plates and treated with the indicated concentrations of P7C3-A20, P7C3-S243, P7C3-S6 or P7C3-S117 together with 0.5 μM doxorubicin for 45 h. Cellular NAD abundance was determined by NAD/NADH Glo assay kit. […] The activities in both assays are represented by (Sinf−S0)/AC50 in dose response curves of test compounds.
Doxorubicin is a DNA-damaging toxin known to activate the poly ADP-ribose polymerase (PARP) enzyme as a central feature of DNA repair (Pacher et al., 2002) (Munoz-Gamez et al., 2009). […] U2OS cells exposed to sub-lethal levels of doxorubicin were lysed in methanol, cleared by centrifugation and subjected to metabolite analysis by mass spectrometry. These methods allow for the simultaneous, quantitative analysis of hundreds of intracellular metabolites (Tu et al., 2007) (Wang et al., 2009). […] The mass spectrometry methods used to quantitate metabolite levels measured NAD relative to hundreds of other intracellular metabolites. […]

[3] = tested on: NAD levels in doxorubicin-treated U2OS cells; assay: NAD rebound assay in doxorubicin-treated cells (NAD/NADH Glo); assay type: cell-based; details: 0.5 μM doxorubicin 45 h
Protocol: FIG. 12. Five-point dose response curves (DRC) of all tested compounds in NAD rebound assay. […] Cellular NAD abundance was determined by NAD/NADH Glo assay kit.
Each chemical variant of P7C3 was co-incubated with doxorubicin on cultured U2OS cells at five doses (0.03 uM, 0.1 uM, 0.3 uM, 1 uM and 3 uM). After 45 hrs incubation, cells were assayed for intracellular levels of NAD (FIG. 12).
Assay was performed following the manufacturer's protocol. NAD/NADH-Glo reagent contains the NAD Cycling Enzyme that converts NAD+ to NADH. In the presence of NADH, the enzyme reductase reduces a proluciferin reductase substrate to form luciferin. Cells were grown in 96- or 384-well plates. 50 μl or 15 μl of NAD/NADH-Glo™ Detection Reagent were added to each well. The resulting luminescence signals were measured by Tecan plate reader or EnVison multimode plate reader (Perkin Elmer).

[4] = tested on: hippocampal neurogenesis (Dentate Gyrus); assay: in vivo neurogenesis assay (BrdU+ cells in dentate gyrus); set-up: species or system mice; details: living mice; vehicle (DMSO) 7.3
Method in brief: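 New hippocampal cells were tracked by daily BrdU injections and anti-BrdU staining of brain sections. Adult mice (two per pool of ten compounds) got week-long intracerebroventricular infusion by mini-pump, dosed for mid-nanomolar exposure.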

## COc1cccc(NCC(F)Cn2c3ccc(Br)cc3c3cc(Br)ccc32)c1 (stereo not shown) [S10]
[1]
  conversion of radiolabeled nicotinamide into NMN and NAD: enhanced conversion of radiolabeled nicotinamide into NMN and NAD
[2]
  NAD level relative to total metabolites: dose-dependent replenishment of NAD
[3]
  rebound of NAD levels (NAD/NADH-Glo kit): rebound of NAD levels
[4]
  Neurogenesis # BrdU+ Cells (X10E06)/mm3 Dentate Gyrus: 19.0 (X10E06)/mm3
